Data as given in US8974768B2, “Azo compounds reducing formation and toxicity of amyloid beta aggregation intermediates” (Max-Delbrueck-Centrum fuer Molekulare Medizin, priority 2010, dated 2015).
Structures can show the parent of a compound that is named as a salt. Where two headings read alike, the source gives them in different places.

Key:
Aβ1-42 peptide = Aβ1-42 peptide (Homo sapiens, UniProt P05067); test: Thioflavin T (Thio T)-assay of Aβ aggregation; type: biochemical
in vitro = conditions: human
[1] = Detection of compounds in brain after in vivo administration; conditions: for Detection in brain after i.v. administration: B6C3 mouse, 5 mg/kg body weight i.v. once, brain samples; for Detectability after oral administration: mouse brain, oral gavage or feeding pellets; for Detection in brain after oral administration, oral gavage administration: five to seven doses over two or three days, sampling 30 min. after last application
[2] = parameters: Detection in brain after i.v. administration: key to the marks not given beside the values; conditions: mouse, in vivo
[3] = 30 μM Aβ1-42 peptide, 48 h at 37° C., vs DMSO control, read-out: ThioT: IC50

Chain of Aβ1-42 peptide (P05067 672-713): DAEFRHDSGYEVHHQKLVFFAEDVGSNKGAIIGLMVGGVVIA

| IC50 (Aβ1-42 peptide; [3]) [µM] | Detection in brain after i.v. administration [1] | IC50 at 48 h (in vitro) [µM] | Compound | further results |
| --- | --- | --- | --- | --- |
| 3 | − | > 1 | Oc1ccc(N=Nc2ccccn2)c(O)c1 [Compound 12, 4-(pyridin-2-yldiazenyl)benzene-1,3-diol] |  |
|  |  |  | CN(C)c1ccc(N=Nc2ccccc2)cc1 [Compound 21, N,N-dimethyl-4-(phenyldiazenyl)aniline] | IC50 (Aβ1-42 peptide): 16.8 µM; IC50 (in vitro): > 100 µM |
| 3.1 | ++ | > 3 | CCNc1ccc2ccccc2c1N=Nc1ccc(N=Nc2ccccc2)cc1 [Compound 7, N-ethyl-1-((4-(-phenyldiazenyl)phenyl)diazenyl)naphthalen-2-amine] |  |
| 736 |  |  | O=C(O)c1ccccc1N=Nc1ccc(O)cc1 [B, 2-((4-hydroxyphenyl)diazenyl)Benzoic acid, reference compound] |  |
| 9.5 |  | > 100 | O=S(=O)(O)c1cccc(N=Nc2ccc(Nc3ccccc3)cc2)c1 [Compound 11] |  |
| 4.8 |  | > 30 | Nc1ccc(N=Nc2ccc(Nc3ccccc3)cc2)cc1 [Compound 24, 4-((4-aminophenyl)diazenyl)-N-phenylaniline] |  |
| 43.9 |  |  | Oc1ccc2ccccc2c1N=Nc1ccccc1 [Compound 25, 1-(phenyldiazenyl)naphthalen-2-ol] |  |
| 61.5 |  |  | O=S(=O)(O)c1ccc(N=Nc2ccc(O)cc2O)cc1 [Compound 27, sodium 4-((2,4-dihydroxyphenyl)diazenyl)benzenesulfonate] |  |
| 2.2 |  | ~31 | Oc1ccc(N=Nc2ccccc2)c(O)c1 [Compound 15, 4-(phenyldiazenyl)benzene-1,3-diol] |  |
| 19.8 |  |  | O=S(=O)(O)c1ccc(O)c(N=Nc2ccc(O)cc2O)c1 [Compound 29, sodium 3-((2,4-dihydroxyphenyl)diazenyl)-4-hydroxybenzenesulfonate] |  |
| 4.8 | − | > 3 | Oc1ccc(N=Nc2nccs2)c(O)c1 [Compound 14, 4-(thiazol-2-yldiazenyl)benzene-1,3-diol] |  |
| 31.8 |  |  | Cc1cc(N=Nc2ccccc2C)ccc1N [Compound 26, 2-methyl-4-(o-tolyldiazenyl)aniline] |  |
| 2.4 | ++ | ~13 | Cc1cc(N=Nc2nccs2)c(O)cc1O [Compound 18, 4-methyl-6-(thiazol-2-yldiazenyl)benzene-1,3-diol] | Detectability after oral administration [1]: excellent; Detection in brain after oral administration, oral gavage administration ([1]; mouse): ++^b)/n.d.^b) |
| 8 |  | > 100 | Oc1ccc(N=Nc2ncn[nH]2)c(O)c1 [Compound 17, 4-((1H-1,2,4-triazol-5-yl)diazenyl)benzene-1,3-diol] |  |
| 3.3 |  | > 30 | Cc1cccc(N=Nc2cc(C=O)c(O)cc2O)c1 [Compound 16, 2,4-dihydroxy-5-(m-tolyldiazenyl)benzaldehyde] |  |
| 12.2 | ++ | > 10 | Oc1ccc2ccccc2c1N=Nc1ccccn1 [Compound 5, 1-(pyridin-2-yldiazenyl)naphthalen-2-ol] |  |

| IC50 (Aβ1-42 peptide; [3]) [µM] | Detection in brain after i.v. administration [1] | IC50 at 48 h (in vitro) [µM] | Compound | further results |
| --- | --- | --- | --- | --- |
| 105 |  |  | CCOc1ccc(N=Nc2ccc(C)cc2)cc1C [compound 34, 1-(4-ethoxy-3-methylphenyl)-2-p-tolyldiazene, reference compound] |  |
| 1.1 |  | > 30 | O=[N+]([O-])c1ccc(N=NNc2ccc(N=Nc3ccccc3)cc2)cc1 [Compound 23, 1-(4-nitrophenyl)-3-(4-(phenyldiazenyl)phenyl)triaz-1-ene] |  |
| 3.3 |  | > 100 | Nc1ccc(N=Nc2ccc([N+](=O)[O-])cc2)cc1 [Compound 3, 4-((4-nitrophenyl)diazenyl)aniline] |  |
| 57.4 |  |  | O=C(O)c1cc(N=Nc2ccccc2)ccc1O [A, 2-hydroxy-5-(phenyldiazenyl)benzoic acid, reference compound] |  |
|  |  |  | CN(C)c1ccc(N=Nc2ccc(N=C=S)cc2)cc1 [Compound 10, 4-((4-isothiocyanatophenyl)diazenyl)-N,N-dimethylaniline] | IC50 (Aβ1-42 peptide): 0.4 µM; Detection in brain after i.v. administration ([2]; iv, 5 mg/kg): ++; Detectability after oral administration ([2]; po): excellent; Detection in brain after oral administration, feeding pellet preparation ([2]; po): ++^a), b); Detection in brain after oral administration, oral gavage administration ([2]; po): ++^a), b); IC50 (in vitro): > 100 µM |
| 0.9 | ++ | ~41 | Cc1cc(O)cc(O)c1N=Nc1ccc([N+](=O)[O-])cc1 [Compound 19, 5-methyl-4-((4-nitrophenyl)diazenyl)benzene-1,3-diol] |  |
| 13.2 |  | ~90 | Oc1ccc(N=Nc2ccccc2)cc1 [Compound 4, 4-(phenyldiazenyl)phenol] |  |
| 87.1 |  |  | O=[N+]([O-])c1ccc(N=Nc2c(O)ccc3ccccc23)cc1 [Compound 31, 1-((4-nitrophenyl)diazenyl)naphthalen-2-ol] |  |
|  |  | 14.1 | CN(C)CCCN1c2ccccc2Sc2ccc(Cl)cc21 [Chlorpromazine, Chlorpromazine hydrochloride, reference compound] |  |
| 0.5 |  |  | O=C(O)c1cc(N=Nc2ccc(-c3ccc(N=Nc4ccc(O)c(C(=O)O)c4)cc3)cc2)ccc1O [C, (5-5′-biphenyl-4,4′-diylbis(diazene-2,1-diyl)bis(2-hydroxybenzoic acid)), reference compound] |  |
| 0.9 | ++ | ~11 | Nc1ccc(N=Nc2cccc(N=Nc3ccc(N)cc3N)c2)c(N)c1 [Compound 6, 4,4′-1,3-phenylenebis(diazene-2,1-diyl)dibenzene-1,3-diamine] |  |
| 2.4 | − | ~101 | Cc1cc(O)cc(O)c1N=Nc1nccs1 [Compound 22, 5-methyl-4-(thiazol-2-yldiazenyl)benzene-1,3-diol] |  |
| 1.3 | ++ | ~3 | Oc1ccc(N=Nc2cc(Cl)ccc2Cl)c(O)c1 [Compound 20, 4-((2,5-dichlorophenyl)diazenyl)benzene-1,3-diol] |  |
| 19.2 |  |  | O=S(=O)(O)c1cc(O)c2c(N=Nc3ccc(O)cc3O)cc(S(=O)(=O)O)cc2c1 [Compound 28, 4-((2,4-dihydroxyphenyl)diazenyl)-5-hydroxynaphthalene-2,7-disulfonic acid] |  |
| 27.4 |  |  | COc1ccc(N=Nc2nccs2)c(O)c1 [Compound 30, 5-methoxy-2-(thiazol-2-yldiazenyl)phenol] |  |
|  |  |  | c1ccc(N=Nc2ccccc2)cc1 [compound 33, 1,2-diphenyldiazene, reference compound] | IC50 (Aβ1-42 peptide): 1090 µM |

| Compound | IC50 (Aβ1-42 peptide; [3]) [µM] | Detection in brain after i.v. administration [1] | IC50 at 48 h (in vitro) [µM] | further results |
| --- | --- | --- | --- | --- |
| O=[N+]([O-])c1ccc(N=Nc2ccc(O)cc2O)cc1 [Compound 13, 4-((4-nitrophenyl)diazenyl)benzene-1,3-diol] | 1.1 | ++ |  | IC50 (in vitro): ~2 µM; Detectability after oral administration [1]: excellent; Detection in brain after oral administration, feeding pellet preparation ([1]; mouse, brain samples after one week feeding): ++^a), b); Detection in brain after oral administration, oral gavage administration ([1]; mouse): ++^a), b) |
